From PubChem BioAssay (NCI)
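Step 1: Grow cells in 96-well plates. Step 2: Expose to compound for 48 hours at 5 concentrations. Step 3: Interpolate endpoints linearly; if unreached, use highest concentration. TGI denotes the concentration required for complete inhibition of growth.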

Columns and labels:
Test in all cases: growth of human tumour cells (NCI), 48 h
EKVX NSCLC = system: EKVX NSCLC
786-0 renal = system: 786-0 renal
NCI/ADR-RES ovarian = system: NCI/ADR-RES ovarian
UACC-62 melanoma = system: UACC-62 melanoma
OVCAR-3 ovarian = system: OVCAR-3 ovarian
A549 NSCLC = system: A549 NSCLC
HOP-62 NSCLC = system: HOP-62 NSCLC
RPMI-8226 leukemia = system: RPMI-8226 leukemia
PC-3 prostate = system: PC-3 prostate
SF-295 CNS = system: SF-295 CNS
OVCAR-8 ovarian = system: OVCAR-8 ovarian
T-47D breast = system: T-47D breast
SF-268 CNS = system: SF-268 CNS
SNB-75 CNS = system: SNB-75 CNS
COLO 205 colon = system: COLO 205 colon
SNB-19 CNS = system: SNB-19 CNS
OVCAR-5 ovarian = system: OVCAR-5 ovarian
NCI-H226 lung = system: NCI-H226 lung
SK-MEL-2 melanoma = system: SK-MEL-2 melanoma
RXF 393 renal = system: RXF 393 renal

SMILES | TGI (EKVX NSCLC) [µM] | TGI (786-0 renal) [µM] | TGI (NCI/ADR-RES ovarian) [µM] | TGI (UACC-62 melanoma) [µM] | TGI (OVCAR-3 ovarian) [µM] | TGI (A549 NSCLC) [µM] | TGI (HOP-62 NSCLC) [µM] | TGI (RPMI-8226 leukemia) [µM] | TGI (PC-3 prostate) [µM] | TGI (SF-295 CNS) [µM] | TGI (OVCAR-8 ovarian) [µM] | TGI (T-47D breast) [µM] | TGI (SF-268 CNS) [µM] | TGI (SNB-75 CNS) [µM] | TGI (COLO 205 colon) [µM] | TGI (SNB-19 CNS) [µM] | TGI (OVCAR-5 ovarian) [µM] | TGI (NCI-H226 lung) [µM] | TGI (SK-MEL-2 melanoma) [µM] | TGI (RXF 393 renal) [µM]
C/C=C1/CN2CCC3(O)c4ccccc4N4C=C(C(=O)OC)C1CC2C43O (stereo not drawn) | > 100 | > 100 | > 100 | > 100 | > 100 | > 100 | > 100 | > 100 | > 100 | > 100 | > 100 | > 100 | > 100 | > 100 | > 100 | > 100 | > 100 | – | – | –
Cc1ccc(C(=O)Nc2ccc(S(=O)(=O)O)c3cc(S(=O)(=O)O)cc(S(=O)(=O)O)c23)cc1NC(=S)Nc1cc(C(=O)Nc2ccc(S(=O)(=O)O)c3cc(S(=O)(=O)O)cc(S(=O)(=O)O)c23)ccc1C | – | > 75 | – | > 75 | > 75 | > 75 | > 75 | > 75 | > 75 | – | > 75 | – | > 75 | > 75 | – | > 75 | > 75 | > 75 | > 75 | –
CCN(CC)C(=S)SS(=O)(=O)c1ccc(Cl)cc1 | > 100 | > 100 | > 100 | > 100 | > 100 | > 100 | 65.7 | 43.2 | – | > 100 | 34 | > 100 | > 100 | – | > 100 | > 100 | > 100 | > 100 | > 100 | 39.2
C=C(C)CC1(O)C(=O)C(OCC)=C1OCC (stereo not drawn) | > 100 | > 100 | > 100 | > 100 | > 100 | > 100 | > 100 | – | > 100 | > 100 | > 100 | > 100 | > 100 | > 100 | > 100 | > 100 | > 100 | > 100 | > 100 | –
O=C(CCCNc1nc(-c2ccccc2)cs1)c1cccs1 | > 100 | > 100 | > 100 | > 100 | > 100 | > 100 | > 100 | > 100 | > 100 | > 100 | > 100 | > 100 | > 100 | > 100 | > 100 | > 100 | > 100 | > 100 | > 100 | –
CCOC(=O)c1nc2ccccc2nc1Nc1ccc(OC)c(OC)c1 | > 100 | > 100 | > 100 | > 100 | > 100 | > 100 | > 100 | > 100 | – | > 100 | – | > 100 | > 100 | 77 | > 100 | > 100 | > 100 | – | > 100 | –
[N-]=[N+]=Nc1c(C=O)c(=O)n(-c2ccccc2)c2ccccc12 | – | 35 | 88.5 | 28.8 | 32.4 | > 100 | > 100 | – | 43.8 | > 100 | – | 61.4 | > 100 | 94.2 | 46.5 | > 100 | > 100 | – | 80.5 | 27.2
COc1cc(C(=O)O[C@@H]2[C@@H](OC(=O)c3cc(OC)c(OC)c(OC)c3)[C@@H](OC)O[C@@H]3CO[C@@H](c4ccccc4)O[C@@H]23)cc(OC)c1OC | > 100 | > 100 | > 100 | > 100 | > 100 | > 100 | > 100 | > 100 | > 100 | > 100 | > 100 | > 100 | > 100 | > 100 | > 100 | > 100 | > 100 | > 100 | > 100 | –
CC1(C)OB(O)OC1(C)C | > 100 | > 100 | – | > 100 | > 100 | > 100 | > 100 | > 100 | – | > 100 | > 100 | – | > 100 | > 100 | > 100 | > 100 | > 100 | > 100 | > 100 | > 100
O=C(O)Cc1ccc(Oc2nc3ccccc3nc2C(=O)O)cc1 | > 100 | > 100 | > 100 | > 100 | > 100 | > 100 | > 100 | > 100 | > 100 | > 100 | > 100 | > 100 | > 100 | > 100 | > 100 | > 100 | > 100 | > 100 | > 100 | –
CCOC(=O)Cc1csc2[n+]1C(=O)/C(=C\c1cccc(Cl)c1Cl)S2 | 50.7 | 31.2 | 33.2 | 21.8 | 42.1 | 35.8 | 46.9 | – | 37.7 | 46.5 | 35.9 | – | 80.2 | 76.6 | 20.7 | 88 | > 100 | 32 | 36.7 | 40.4
Cc1cccc(CC(Cc2c(C)cccc2C(=O)O)C(=O)O)c1 (stereo not drawn) | > 100 | > 100 | > 100 | 10.6 | > 100 | > 100 | > 100 | > 100 | > 100 | > 100 | > 100 | – | > 100 | > 100 | > 100 | > 100 | > 100 | > 100 | > 100 | > 100
CCN(CC)CCN1C(=O)c2c(c(-c3ccccc3)c3ccccc3c2-c2ccccc2)C1=O | > 100 | > 100 | > 100 | > 100 | – | > 100 | > 100 | > 100 | > 100 | > 100 | > 100 | – | > 100 | > 100 | > 100 | > 100 | > 100 | > 100 | > 100 | > 100
